Measurements: patent US9249087B2, “HDAC inhibitors and therapeutic methods using the same” (THE BOARD OF TRUSTEES OF THE UNIVERSITY OF ILLINOIS, priority 2011, dated 2016)

Columns and labels:
[1] = test system: traumatic brain injury in rats; conditions: following traumatic brain injury in rats; cited from earlier work
primary cortical neurons = assay: HCA oxidative stress neuroprotection assay (MTT); assay type: cell-based
From the text: It has been shown that HDAC6 inhibition protects against neuronal degeneration and stimulates neurite outgrowth in dorsal root ganglion neurons, therefore indicating methods of treating CNS diseases. Accordingly, present HDACI compounds were examined in a model of oxidative stress induced by homocysteic acid (HCA). This model leads to depletion of glutathione, the major intracellular antioxidant. HDAC6 inhibition rescues neuronal death in this model, possibly by causing hyperacetylation of peroxiredoxins. […] (A. P. Kozikowski et al., J. Med. Chem. 2007, 50, 3054-61.)
FIGS. 1 and 2 contain neuroprotection bar graphs of the HCA oxidative stress test assay. Neurons were treated with TSA (FIG. 1) or a present HDACI compound (FIG. 2), alone or with the addition of HCA (homocysteic acid).
The data summarized in FIGS. 1 and 2 was obtained according to the following neuroprotective assay. Primary cortical neuron cultures were obtained from the cerebral cortex of fetal Sprague-Dawley rats (embryonic day 17). All experiments were initiated 24 hours after plating. Under these conditions, the cells are not susceptible to glutamate-mediated excitotoxicity. […] Viability was assessed after 24 hours by the MTT assay (3-(4,5-dimethylthiazol-2-yl)-2,5-diphenyltetrazolium bromide) method.

HDAC2 = HDAC2 (Homo sapiens (Human), UniProt Q92769); assay: HDAC2 fluorogenic peptide deacetylation inhibition assay; assay type: biochemical; conditions: average of two experiments; read-out: HDAC Isoform IC50 (μM) 2
HDAC7 = HDAC7 (Homo sapiens (Human), UniProt Q8WUI4); conditions: read-out: HDAC Isoform IC50 (μM) 7
mice with colitis = assay: colitis in mice; assay type: in vivo; conditions: treatment begun once colitis had developed
From the text: Studies of autoimmunity also are undertaken. In this case, interruption of existing disease is especially important and HDAC6 targeting can be efficacious without any requirement for additional therapy (in contrast to a need for brief low-dose RPM in the very aggressive, fully MHC-mismatched transplant models). […] These studies are extended by assessing whether deletion of HDAC6 in Tregs (Foxp3/Cre) vs. T cells (CD4=Cre) vs. DC (CD11c-Cre) differentially affect the development and severity of colitis. Similarly, control of colitis is assessed by inducing HDAC6 deletion at varying intervals after the onset of colitis with tamoxifen-regulated Cre.

HDAC5 = HDAC5 (Homo sapiens (Human), UniProt Q9UQL6); assay: HDAC5 inhibition assay (Acetyl-Lys(trifluoroacetyl)-AMC substrate); assay type: biochemical; conditions: average of two experiments; read-out: HDAC Isoform IC50 (μM) 5
Sequence of HDAC5 (Q9UQL6 whole entry, canonical isoform): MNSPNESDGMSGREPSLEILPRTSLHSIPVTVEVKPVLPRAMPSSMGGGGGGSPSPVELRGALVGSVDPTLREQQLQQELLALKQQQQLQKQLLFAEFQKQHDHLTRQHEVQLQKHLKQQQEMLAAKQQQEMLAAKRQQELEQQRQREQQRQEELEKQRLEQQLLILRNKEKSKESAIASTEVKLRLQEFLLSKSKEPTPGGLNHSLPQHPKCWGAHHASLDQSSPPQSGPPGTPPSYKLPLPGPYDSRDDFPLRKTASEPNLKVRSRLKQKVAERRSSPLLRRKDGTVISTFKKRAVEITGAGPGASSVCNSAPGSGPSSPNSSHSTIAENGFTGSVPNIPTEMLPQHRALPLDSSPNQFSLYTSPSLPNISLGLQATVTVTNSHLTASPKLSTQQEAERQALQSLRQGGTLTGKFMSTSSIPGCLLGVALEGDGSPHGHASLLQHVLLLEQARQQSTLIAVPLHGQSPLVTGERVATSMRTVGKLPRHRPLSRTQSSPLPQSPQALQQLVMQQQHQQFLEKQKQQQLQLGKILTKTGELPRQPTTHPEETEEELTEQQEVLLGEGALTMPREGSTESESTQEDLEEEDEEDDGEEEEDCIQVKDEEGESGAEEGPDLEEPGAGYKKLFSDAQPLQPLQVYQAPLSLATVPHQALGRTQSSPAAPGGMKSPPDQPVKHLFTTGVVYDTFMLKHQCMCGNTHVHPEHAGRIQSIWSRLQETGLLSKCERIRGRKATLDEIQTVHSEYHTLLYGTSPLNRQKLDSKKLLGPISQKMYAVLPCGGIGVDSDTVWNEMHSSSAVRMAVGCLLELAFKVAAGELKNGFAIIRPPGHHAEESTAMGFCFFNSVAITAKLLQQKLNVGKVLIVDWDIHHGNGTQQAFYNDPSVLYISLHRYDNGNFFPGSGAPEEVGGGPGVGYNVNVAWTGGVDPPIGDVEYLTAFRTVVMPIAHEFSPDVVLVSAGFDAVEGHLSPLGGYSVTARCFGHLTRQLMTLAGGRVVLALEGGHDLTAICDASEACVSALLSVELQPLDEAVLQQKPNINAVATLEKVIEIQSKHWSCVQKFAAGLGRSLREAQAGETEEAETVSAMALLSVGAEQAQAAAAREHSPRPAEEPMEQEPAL

Sequence of HDAC2 (Q92769 whole entry, canonical isoform): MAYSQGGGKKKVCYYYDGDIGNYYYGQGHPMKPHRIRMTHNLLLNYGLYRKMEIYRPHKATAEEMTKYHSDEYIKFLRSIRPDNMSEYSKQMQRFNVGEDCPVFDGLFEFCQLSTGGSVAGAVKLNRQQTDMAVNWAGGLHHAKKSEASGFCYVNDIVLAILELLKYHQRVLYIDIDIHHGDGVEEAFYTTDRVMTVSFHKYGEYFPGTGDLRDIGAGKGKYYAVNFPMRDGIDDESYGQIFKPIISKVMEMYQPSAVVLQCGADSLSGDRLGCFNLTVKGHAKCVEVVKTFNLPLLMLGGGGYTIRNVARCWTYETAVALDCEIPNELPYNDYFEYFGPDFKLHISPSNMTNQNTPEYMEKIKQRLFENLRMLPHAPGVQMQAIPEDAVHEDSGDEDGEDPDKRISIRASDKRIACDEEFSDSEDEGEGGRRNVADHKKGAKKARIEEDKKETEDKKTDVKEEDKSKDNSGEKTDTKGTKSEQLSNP
Sequence of HDAC7 (Q8WUI4 whole entry, canonical isoform): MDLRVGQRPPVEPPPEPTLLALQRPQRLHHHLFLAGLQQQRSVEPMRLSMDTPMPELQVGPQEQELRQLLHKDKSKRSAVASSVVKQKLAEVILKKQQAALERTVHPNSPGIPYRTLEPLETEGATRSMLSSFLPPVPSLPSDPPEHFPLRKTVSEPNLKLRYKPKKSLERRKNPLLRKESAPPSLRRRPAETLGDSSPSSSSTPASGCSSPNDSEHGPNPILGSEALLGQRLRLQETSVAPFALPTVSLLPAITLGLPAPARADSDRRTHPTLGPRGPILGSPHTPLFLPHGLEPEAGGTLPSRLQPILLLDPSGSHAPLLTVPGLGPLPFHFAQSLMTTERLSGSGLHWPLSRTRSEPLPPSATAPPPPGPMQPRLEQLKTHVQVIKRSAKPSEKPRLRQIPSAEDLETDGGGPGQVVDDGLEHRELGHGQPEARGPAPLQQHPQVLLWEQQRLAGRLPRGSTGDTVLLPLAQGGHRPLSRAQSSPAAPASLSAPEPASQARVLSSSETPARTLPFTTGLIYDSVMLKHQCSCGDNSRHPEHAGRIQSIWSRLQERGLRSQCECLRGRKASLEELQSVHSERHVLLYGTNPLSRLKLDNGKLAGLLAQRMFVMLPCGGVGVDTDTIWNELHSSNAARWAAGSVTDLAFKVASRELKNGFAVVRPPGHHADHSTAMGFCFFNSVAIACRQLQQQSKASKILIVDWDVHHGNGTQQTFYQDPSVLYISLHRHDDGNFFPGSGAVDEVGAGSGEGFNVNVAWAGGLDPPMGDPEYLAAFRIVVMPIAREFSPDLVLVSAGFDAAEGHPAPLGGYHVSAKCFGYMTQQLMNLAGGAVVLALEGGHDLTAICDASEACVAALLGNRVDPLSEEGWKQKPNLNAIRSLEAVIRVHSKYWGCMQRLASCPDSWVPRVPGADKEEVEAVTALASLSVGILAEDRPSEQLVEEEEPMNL

Compound: CN(C)c1ccc(C(=O)NCCCCCNC(=O)CS)cc1 [DMA-PB, 4-dimethylamino-N-[5-(2-mercaptoacetylamino)pentyl]benzamide]
- histone H3 acetylation [1]: increase histone H3 acetylation
- microglia inflammatory response [1]: reduce microglia inflammatory response

Compound: CC(/C=C/C(=O)NO)=C\[C@@H](C)C(=O)c1ccc(N(C)C)cc1 [TSA, Trichostatin A]
- neuroprotection in HCA-induced neurodegeneration assay (primary cortical neurons; 0.5 μM, HCA 5 mM, viability by MTT after 24 hours): moderately neuroprotective
- neurotoxicity to primary cortical neurons (primary cortical neurons; higher concentrations than 0.5 μM): dose-dependant neurotoxicity

Compound: O=C(CCCCCCC(=O)Nc1ccc([C@H]2O[C@@H](CSc3nc(-c4ccccc4)c(-c4ccccc4)o3)C[C@@H](c3ccc(CO)cc3)O2)cc1)NO [Tubacin]
- IC50 (HDAC2): 6.27 µM
- IC50 (HDAC7): 9.7 µM
- rescue of mice with established colitis (mice with colitis): able to rescue mice
- IC50 (HDAC5): 3.35 µM
